Results reported in patent US6914045B2, “Glycopeptide antibiotics” (Wyeth Holdings Corporation, priority 2001, dated 2005).
Values after ≈ are worked out from the molar mass of the structure shown.

Columns and labels:
Assay in all cases: in vitro antibacterial evaluation, MIC by broth dilution
Type in all cases: cell-based
Enterococcus sp. = conditions: broth dilution, 18 hours at 35° C.; for MIC Enterococcus faecalis (ATCC 29212): strain ATCC 29212; for MIC Enterococcus faecalis (GC 2242): strain GC 2242; for MIC Enterococcus faecium (GC 2243): strain GC 2243; for MIC Enterococcus faecalis (GC 2691): strain GC 2691; for MIC Enterococcus faecalis (GC 3059): strain GC 3059; for MIC Enterococcus faecalis (GC 4552): strain GC 4552; for MIC Enterococcus faecalis (GC 4553): strain GC 4553; for MIC Enterococcus faecalis (GC 4554): strain GC 4554; for MIC Enterococcus faecium (GC 4556): strain GC 4556; for MIC Enterococcus faecium (GC 4557): strain GC 4557; for MIC Enterococcus avium (GC 4558): strain GC 4558; for MIC Enterococcus faecalis (GC 6189): strain GC 6189
Experimental: (§1) Methods for in vitro Antibacterial Evaluation (Table 1)
(§2) The minimum inhibitory concentration (MIC), the lowest concentration of the antibiotic which inhibits growth of the test organism, is determined by the broth dilution method using Muller-Hinton II […] (Baltimore Biological Laboratories) following the recommendations of the National Committee for Clinical Laboratory Standards [Methods for dilution antimicrobial susceptibility tests for bacteria that grow aerobically, approved standard M7-A2, National Committee for Clinical Laboratory Standards, Villanova, Pa.].
(§3) An inoculum level of 5×10^5 CFU/mL, and a range of antibiotic concentrations (64-0.06 μg/mL) is used. […] The test organisms include a spectrum of Gram-positive bacteria comprised of Staphylococcus sp., Streptococcus sp. and Enterococcus sp. These organisms include recent clinical isolates that are resistant to methicillin, penicillin and/or vancomycin.

Staphylococcus sp. = conditions: broth dilution, 18 hours at 35° C.; for MIC Staphylococcus aureus (ATCC 29213): strain ATCC 29213; for MIC Staphylococcus aureus (GC 1131): strain GC 1131; for MIC Staphylococcus aureus (GC 3051): strain GC 3051; for MIC Staphylococcus aureus (GC 3053): strain GC 3053; for MIC Staphylococcus aureus (GC 4541): strain GC 4541; for MIC Staphylococcus aureus (GC 4542): strain GC 4542; for MIC Staphylococcus aureus-SMITH (GC 4543): strain GC 4543; for MIC Staphylococcus aureus (GC 4544): strain GC 4544; for MIC Staphylococcus aureus (GC 4545): strain GC 4545; for MIC Staphylococcus haemolyticus (GC 4546): strain GC 4546; for MIC Coagulase Negative Staphylococcus (GC 4547): strain GC 4547; for MIC Coagulase Negative Staphylococcus (GC 4548): strain GC 4548; for MIC Coagulase Negative Staphylococcus (GC 4549): strain GC 4549; for MIC Coagulase Negative Staphylococcus (GC 4551): strain GC 4551; for MIC Coagulase Negative Staphylococcus (GC 6257): strain GC 6257
Experimental: as §1, §2, §3

Streptococcus sp. = conditions: broth dilution, 18 hours at 35° C.; for MIC Streptococcus pneumoniae (ATCC 6301): strain ATCC 6301; for MIC Streptococcus pneumoniae (GC 1894): strain GC 1894; for MIC Streptococcus pyogenes (GC 4563): strain GC 4563; for MIC Streptococcus agalactiae (GC 4564): strain GC 4564; for MIC Streptococcus pneumoniae (GC 4565): strain GC 4565
Experimental: as §1, §2, §3

Escherichia coli = conditions: broth dilution, 18 hours at 35° C.; for MIC Escherichia coli (ATCC 25922): strain ATCC 25922; for MIC Escherichia coli (GC 4559): strain GC 4559; for MIC Escherichia coli (GC 4560): strain GC 4560
In short: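 MIC is the lowest antibiotic concentration (tested 64-0.06 μg/mL) preventing growth of a 5×10^5 CFU/mL inoculum. Determined by broth dilution in Mueller-Hinton II medium following NCCLS standard M7-A2.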

| MIC Enterococcus faecalis (ATCC 29212) (Enterococcus sp.) | MIC Enterococcus faecalis (GC 2242) (Enterococcus sp.) | MIC Enterococcus faecium (GC 2243) (Enterococcus sp.) | MIC Enterococcus faecalis (GC 2691) (Enterococcus sp.) | MIC Enterococcus faecalis (GC 3059) (Enterococcus sp.) | MIC Enterococcus faecalis (GC 4552) (Enterococcus sp.) | MIC Enterococcus faecalis (GC 4553) (Enterococcus sp.) | MIC Enterococcus faecalis (GC 4554) (Enterococcus sp.) | MIC Enterococcus faecium (GC 4556) (Enterococcus sp.) | MIC Enterococcus faecium (GC 4557) (Enterococcus sp.) | MIC Enterococcus avium (GC 4558) (Enterococcus sp.) | MIC Enterococcus faecalis (GC 6189) (Enterococcus sp.) | MIC Staphylococcus aureus (ATCC 29213) (Staphylococcus sp.) | MIC Staphylococcus aureus (GC 1131) (Staphylococcus sp.) | MIC Staphylococcus aureus (GC 3051) (Staphylococcus sp.) | MIC Staphylococcus aureus (GC 3053) (Staphylococcus sp.) | MIC Staphylococcus aureus (GC 4541) (Staphylococcus sp.) | MIC Staphylococcus aureus (GC 4542) (Staphylococcus sp.) | MIC Staphylococcus aureus-SMITH (GC 4543) (Staphylococcus sp.) | MIC Staphylococcus aureus (GC 4544) (Staphylococcus sp.) | SMILES | other results |
| --- | --- | --- | --- | --- | --- | --- | --- | --- | --- | --- | --- | --- | --- | --- | --- | --- | --- | --- | --- | --- | --- |
| >64 µg/mL | >64 µg/mL | >64 µg/mL | >64 µg/mL | >64 µg/mL | >64 µg/mL | >64 µg/mL | >64 µg/mL | 64 µg/mL (≈ 58.7 µM) | 64 µg/mL (≈ 58.7 µM) | 64 µg/mL (≈ 58.7 µM) | >64 µg/mL | >64 µg/mL | >64 µg/mL | >64 µg/mL | >64 µg/mL | >64 µg/mL | >64 µg/mL | >64 µg/mL | >64 µg/mL | CC(c1ccccc1)C1NC(=O)CNC(=O)C(CO)NC(=O)C(C(O)C2CNC(=N)N2C2OC(CO)C(O)C(O)C2O)NC(=O)C(C(O)C2CNC(=N)N2)NC(=O)C(Cc2ccc(O)c(NC(=O)c3ccccc3)c2)NC1=O (stereo not drawn) [Example 17, Cyclo[glycyl-β-methylphenylalanyl-3-(benzamido)tyrosyl-3-(2-iminoimidazolidin-4-yl)seryl-3-(3-hexopyranosyl-2-iminoimidazolidin-4-yl)serylseryl]] | MIC Staphylococcus aureus (GC 4545) (Staphylococcus sp.): >64 µg/mL; MIC Staphylococcus haemolyticus (GC 4546) (Staphylococcus sp.): >64 µg/mL; MIC Coagulase Negative Staphylococcus (GC 4547) (Staphylococcus sp.): 64 µg/mL (≈ 58.7 µM); MIC Coagulase Negative Staphylococcus (GC 4548) (Staphylococcus sp.): >64 µg/mL; MIC Coagulase Negative Staphylococcus (GC 4549) (Staphylococcus sp.): 32 µg/mL (≈ 29.4 µM); MIC Coagulase Negative Staphylococcus (GC 4551) (Staphylococcus sp.): >64 µg/mL; MIC Coagulase Negative Staphylococcus (GC 6257) (Staphylococcus sp.): 64 µg/mL (≈ 58.7 µM); MIC Streptococcus pneumoniae (ATCC 6301) (Streptococcus sp.): >64 µg/mL; MIC Streptococcus pneumoniae (GC 1894) (Streptococcus sp.): 64 µg/mL (≈ 58.7 µM); MIC Streptococcus pyogenes (GC 4563) (Streptococcus sp.): >64 µg/mL; MIC Streptococcus agalactiae (GC 4564) (Streptococcus sp.): >64 µg/mL; MIC Streptococcus pneumoniae (GC 4565) (Streptococcus sp.): >64 µg/mL; MIC Escherichia coli (ATCC 25922) (Escherichia coli): 64 µg/mL (≈ 58.7 µM); MIC Escherichia coli (GC 4559) (Escherichia coli): 32 µg/mL (≈ 29.4 µM); MIC Escherichia coli (GC 4560) (Escherichia coli): 16 µg/mL (≈ 14.7 µM) |
| 64 µg/mL (≈ 58.7 µM) | 32 µg/mL (≈ 29.4 µM) | 32 µg/mL (≈ 29.4 µM) | 32 µg/mL (≈ 29.4 µM) | 64 µg/mL (≈ 58.7 µM) | 64 µg/mL (≈ 58.7 µM) | 16 µg/mL (≈ 14.7 µM) | 64 µg/mL (≈ 58.7 µM) | 64 µg/mL (≈ 58.7 µM) | 8 µg/mL (≈ 7.34 µM) | 16 µg/mL (≈ 14.7 µM) | 32 µg/mL (≈ 29.4 µM) | 8 µg/mL (≈ 7.34 µM) | 8 µg/mL (≈ 7.34 µM) | 16 µg/mL (≈ 14.7 µM) | 16 µg/mL (≈ 14.7 µM) | 16 µg/mL (≈ 14.7 µM) | 8 µg/mL (≈ 7.34 µM) | 8 µg/mL (≈ 7.34 µM) | 8 µg/mL (≈ 7.34 µM) | CC(c1ccccc1)C1NC(=O)CNC(=O)C(CO)NC(=O)C(C(O)C2CNC(=N)N2C2OC(CO)C(O)C(O)C2O)NC(=O)C(C(O)C2CNC(=N)N2)NC(=O)C(Cc2ccc3oc(-c4cccc(F)c4)nc3c2)NC1=O (stereo not drawn) [Example 30, Cyclo[3-[2-(3-fluorophenyl)-1,3-benzoxazol-5-yl]alanyl-3-(2-iminoimidazolidin-4-yl)seryl-3-(3-hexopyranosyl-2-iminoimidazolidin-4-yl)serylserylglycyl-β-methylphenylalanyl]] | MIC Staphylococcus aureus (GC 4545) (Staphylococcus sp.): 8 µg/mL (≈ 7.34 µM); MIC Staphylococcus haemolyticus (GC 4546) (Staphylococcus sp.): 4 µg/mL (≈ 3.67 µM); MIC Coagulase Negative Staphylococcus (GC 4547) (Staphylococcus sp.): 8 µg/mL (≈ 7.34 µM); MIC Coagulase Negative Staphylococcus (GC 4548) (Staphylococcus sp.): 4 µg/mL (≈ 3.67 µM); MIC Coagulase Negative Staphylococcus (GC 4549) (Staphylococcus sp.): 16 µg/mL (≈ 14.7 µM); MIC Coagulase Negative Staphylococcus (GC 4551) (Staphylococcus sp.): 8 µg/mL (≈ 7.34 µM); MIC Coagulase Negative Staphylococcus (GC 6257) (Staphylococcus sp.): 4 µg/mL (≈ 3.67 µM); MIC Streptococcus pneumoniae (ATCC 6301) (Streptococcus sp.): 8 µg/mL (≈ 7.34 µM); MIC Streptococcus pneumoniae (GC 1894) (Streptococcus sp.): 16 µg/mL (≈ 14.7 µM); MIC Streptococcus pyogenes (GC 4563) (Streptococcus sp.): 4 µg/mL (≈ 3.67 µM); MIC Streptococcus agalactiae (GC 4564) (Streptococcus sp.): 8 µg/mL (≈ 7.34 µM); MIC Streptococcus pneumoniae (GC 4565) (Streptococcus sp.): 16 µg/mL (≈ 14.7 µM); MIC Escherichia coli (ATCC 25922) (Escherichia coli): 32 µg/mL (≈ 29.4 µM); MIC Escherichia coli (GC 4559) (Escherichia coli): 32 µg/mL (≈ 29.4 µM); MIC Escherichia coli (GC 4560) (Escherichia coli): 8 µg/mL (≈ 7.34 µM) |
